Measured values taken from patent EP0373216A1, “CEPHALOSPORIN COMPOUNDS OR THEIR SALTS, PROCESS FOR THEIR PREPARATION, AND PARMACEUTICAL COMPOSITIONS” (TEIJIN LIMITED, priority 1987, dated 1988).
In brackets after ≈: the same amount, converted by molar mass. Like-named read-outs stand apart in the source and are kept apart here.

What was measured:
Test in all cases: In vitro antibacterial activity, agar disc dilution method
Assay type in all cases: cell-based
[1] = tested on: M. euteus ATCC 9341; details: read-out: minimum growth inhibitory concentration (MIC)
Description: (§1) An in vitro antibacterial activity was measured by an agar disc dilution method.
(§2) Varied test bacteria were cultivated overnight in triptophane-soybroth. A Mueller Hinton agar containing the compound of this invention in varied concentrations was streaked with one platinum loopful of each of the bacteria (number of living cells 10^6/ml).

[2] = tested on: P. aeruginosa NCTC 1049; details: Pseudomonas aeruginosa, read-out: minimum growth inhibitory concentration (MIC)
Description: as §1, §2

[3] = tested on: K. pneumoniae PC I 602; details: Klebsiella pneumoniae, read-out: minimum growth inhibitory concentration (MIC)
Description: as §1, §2

[4] = tested on: S. marcescens I AM 1184; details: Serratia marcescens, read-out: minimum growth inhibitory concentration (MIC)
Description: as §1, §2

[5] = tested on: P. rettgeric IFO3850; details: read-out: minimum growth inhibitory concentration (MIC)
Description: as §1, §2

[6] = tested on: P. vulgalis OX-19; details: read-out: minimum growth inhibitory concentration (MIC)
Description: as §1, §2

[7] = tested on: B. subtilis ATCC 6633; details: Bacillus subtilis, read-out: minimum growth inhibitory concentration (MIC)
Description: as §1, §2

[8] = tested on: S. aureus Terajima; details: Staphylococcus aureus, read-out: minimum growth inhibitory concentration (MIC)
Description: as §1, §2

[9] = tested on: S. pyogenes Cook; details: Streptococcus pyogenes, read-out: minimum growth inhibitory concentration (MIC)
Description: as §1, §2

[10] = tested on: E. coli K12C600; details: Escherichia coli, read-out: minimum growth inhibitory concentration (MIC)
Description: as §1, §2

[11] = tested on: E. cloacae 963; details: read-out: minimum growth inhibitory concentration (MIC)
Description: as §1, §2

[12] = tested on: S. typhic 901; details: Mueller Hinton agar, 10^6/ml, 37°C for 16 hours, read-out: minimum growth inhibitory concentration (MIC)
Description: as §1, §2

[13] = tested on: P. morganii IFO 3445; details: Morganella morganii, read-out: minimum growth inhibitory concentration (MIC)
Description: as §1, §2

[14] = tested on: S. enteritidis G14; details: Salmonella enterica, read-out: minimum growth inhibitory concentration (MIC)
Description: as §1, §2

[15] = M. euteus ATCC 9341, Mueller Hinton agar, 10^6/ml, 37°C for 16 hours
[16] = NCTC1049, P. aeruginosa NCTC 1049, Mueller Hinton agar, 10^6/ml, 37°C for 16 hours
[17] = PCI602, K. pneumoniae PC I 602, Mueller Hinton agar, 10^6/ml, 37°C for 16 hours
[18] = IAM1184, S. marcescens I AM 1184, Mueller Hinton agar, 10^6/ml, 37°C for 16 hours
[19] = P. rettgeric IFO3850, Mueller Hinton agar, 10^6/ml, 37°C for 16 hours
[20] = P. vulgalis OX-19, Mueller Hinton agar, 10^6/ml, 37°C for 16 hours
[21] = ATCC6633, B. subtilis ATCC 6633, Mueller Hinton agar, 10^6/ml, 37°C for 16 hours
[22] = S. aureus Terajima, Mueller Hinton agar, 10^6/ml, 37°C for 16 hours
[23] = S. pyogenes Cook, Mueller Hinton agar, 10^6/ml, 37°C for 16 hours
[24] = E. coli K12C600, Mueller Hinton agar, 10^6/ml, 37°C for 16 hours
[25] = Enterobacter cloacae, E. cloacae 963, Mueller Hinton agar, 10^6/ml, 37°C for 16 hours
[26] = IFO3445, P. morganii IFO 3445, Mueller Hinton agar, 10^6/ml, 37°C for 16 hours
[27] = S. enteritidis G14, Mueller Hinton agar, 10^6/ml, 37°C for 16 hours

| SMILES | MIC [1, 15] [µg/mL] | MIC [2, 16] [µg/mL] | MIC [3, 17] [µg/mL] | MIC [4, 18] [µg/mL] | MIC [5, 19] [µg/mL] | MIC [6, 20] [µg/mL] | MIC [7, 21] [µg/mL] | MIC [8, 22] [µg/mL] | MIC [9, 23] [µg/mL] | MIC [10, 24] [µg/mL] | MIC [11, 25] [µg/mL] | MIC [12] [µg/mL] | MIC [13, 26] [µg/mL] | MIC [14, 27] [µg/mL] | further results |
| --- | --- | --- | --- | --- | --- | --- | --- | --- | --- | --- | --- | --- | --- | --- | --- |
| CC(=O)Oc1cc2cc[n+](CC3=C(C(=O)[O-])N4C(=O)[C@@H](NC(=O)/C(=N\Oc5ccccc5)c5csc(N)n5)[C@H]4SC3)cc2cc1OC(C)=O [Compound IX, (6R,7R)-7-[(Z)-2-(2-amino-1,3-thiazol-4-yl)-2-phenoxyiminoacetamide]-3-(6,7-diacetoxy-2-isoquinolinium)methyl-3-cephem-4-carboxylate] | 1.6 (≈ 2.28 µM) | 0.1 (≈ 0.142 µM) | < 0.01 | < 0.01 | < 0.01 | < 0.01 | 0.8 (≈ 1.14 µM) | 1.6 (≈ 2.28 µM) | 0.4 (≈ 0.569 µM) | 0.01 (≈ 0.0142 µM) | 0.02 (≈ 0.0285 µM) | < 0.01 | < 0.01 | 0.02 (≈ 0.0285 µM) | – |
| Nc1nc(/C(=N/Oc2cccc(C(=O)O)c2)C(=O)N[C@@H]2C(=O)N3C(C(=O)[O-])=C(C[n+]4ccc5cc(O)c(O)cc5c4)CS[C@H]23)cs1 [Compound VIII] | 1.6 (≈ 2.41 µM) | 0.2 (≈ 0.302 µM) | 0.03 (≈ 0.0453 µM) | 0.1 (≈ 0.151 µM) | 0.02 (≈ 0.0302 µM) | 0.02 (≈ 0.0302 µM) | 0.3 (≈ 0.453 µM) | 3.1 (≈ 4.68 µM) | 0.8 (≈ 1.21 µM) | 0.05 (≈ 0.0755 µM) | 0.1 (≈ 0.151 µM) | 0.03 (≈ 0.0453 µM) | 0.03 (≈ 0.0453 µM) | 0.03 (≈ 0.0453 µM) | – |
| Nc1nc(/C(=N/Oc2ccccc2)C(=O)N[C@@H]2C(=O)N3C(C(=O)[O-])=C(C[n+]4cc(C(=O)O)c5cc(O)c(O)cc5c4Cl)CS[C@H]23)cs1 [Compound VII, (6R,7R)-7-[(Z)-2-(2-amino-1,3-thiazol-4-yl)-2-phenoxyiminoacetamide]-3-(l-chloro-4-carboxy-6,7-dihydroxy-2-isoquinolinium)methyl-3-cephem-4-carboxylate] | 0.8 (≈ 1.15 µM) | 1.6 (≈ 2.3 µM) | 0.03 (≈ 0.043 µM) | 0.03 (≈ 0.043 µM) | 0.03 (≈ 0.043 µM) | 0.02 (≈ 0.0287 µM) | 1.6 (≈ 2.3 µM) | 3.1 (≈ 4.45 µM) | 0.4 (≈ 0.574 µM) | 0.03 (≈ 0.043 µM) | 0.1 (≈ 0.143 µM) | – | 0.03 (≈ 0.043 µM) | 0.02 (≈ 0.0287 µM) | – |
| Nc1nc(/C(=N/Oc2ccccc2)C(=O)N[C@@H]2C(=O)N3C(C(=O)[O-])=C(C[n+]4ccc5cc(O)c(O)cc5c4)CS[C@H]23)ns1 [Compound XI, (6R,7R)-[(Z)-2(5-amino-1,2,4-thiadiazol-3-yl)-2-phenoxyiminoacetamide]-3-(6,7-dihydroxy-2-isoquinolinium)methyl-3-cephem-carboxylate] | 0.01 (≈ 0.0161 µM) | 0.2 (≈ 0.323 µM) | < 0.01 | < 0.01 | < 0.01 | < 0.01 | 0.4 (≈ 0.646 µM) | 0.2 (≈ 0.323 µM) | 0.05 (≈ 0.0807 µM) | 0.01 (≈ 0.0161 µM) | < 0.01 | < 0.01 | < 0.01 | < 0.01 | – |
| Nc1nc(/C(=N/Oc2ccc(-c3ccccc3)cc2)C(=O)N[C@@H]2C(=O)N3C(C(=O)[O-])=C(C[n+]4ccc5cc(O)c(O)cc5c4)CS[C@H]23)cs1 [Compound IV, (6R,7R)-7-[(Z)-2-(2-amino-1,3-thiazol-4-yl)-2-(p-phenylphenoxy)iminoacetamide]-3-(6,7-dihydroxy-2-isoquinolinium)methyl-3-cephem-4-carboxylate] | 0.8 (≈ 1.15 µM) | 0.8 (≈ 1.15 µM) | 0.02 (≈ 0.0288 µM) | < 0.01 | < 0.01 | < 0.01 | 1.6 (≈ 2.3 µM) | 1.6 (≈ 2.3 µM) | 0.4 (≈ 0.576 µM) | 0.02 (≈ 0.0288 µM) | < 0.01 | < 0.01 | < 0.01 | 0.02 (≈ 0.0288 µM) | – |
| Nc1nc(/C(=N/Oc2ccc(Cl)cc2)C(=O)N[C@@H]2C(=O)N3C(C(=O)[O-])=C(C[n+]4ccc5cc(O)c(O)cc5c4)CS[C@H]23)cs1 [Compound III] | 0.2 (≈ 0.306 µM) | 0.8 (≈ 1.22 µM) | < 0.01 | < 0.01 | < 0.01 | < 0.01 | 0.4 (≈ 0.612 µM) | 0.8 (≈ 1.22 µM) | 0.1 (≈ 0.153 µM) | < 0.01 | 0.03 (≈ 0.0459 µM) | < 0.01 | 0.01 (≈ 0.0153 µM) | < 0.01 | – |
| CC(C)(O/N=C(\C(=O)N[C@@H]1C(=O)N2C(C(=O)[O-])=C(C[n+]3ccc4cc(O)c(O)cc4c3)CS[C@H]12)c1csc(N)n1)C(=O)O [Compound A, (6R,7R)-7-[(Z)-2-(2-amino-l,3-thiazol-4-yl)-2-(2-carboxypropyl-2-yloxyimino)acetamide]-3-(6,7-dihydroxy-2-isoquinolinium)methyl-3-cephem-4-carboxylate, reference compound] | 0.2 (≈ 0.318 µM) | 0.02 (≈ 0.0318 µM) | < 0.01 | < 0.01 | < 0.01 | < 0.01 | 0.4 (≈ 0.636 µM) | 6.2 (≈ 9.86 µM) | 1.6 (≈ 2.55 µM) | < 0.01 | < 0.01 | < 0.01 | < 0.01 | < 0.01 | – |
| Nc1nc(/C(=N/Oc2ccc(CC(=O)O)cc2)C(=O)N[C@@H]2C(=O)N3C(C(=O)[O-])=C(C[n+]4ccc5cc(O)c(O)cc5c4)CS[C@H]23)cs1 [Compound V] | 1.6 (≈ 2.36 µM) | 0.05 (≈ 0.0739 µM) | 0.03 (≈ 0.0443 µM) | 0.8 (≈ 1.18 µM) | < 0.01 | < 0.01 | 1.6 (≈ 2.36 µM) | 1.6 (≈ 2.36 µM) | 0.8 (≈ 1.18 µM) | 0.02 (≈ 0.0296 µM) | 0.05 (≈ 0.0739 µM) | 0.02 (≈ 0.0296 µM) | < 0.01 | 0.02 (≈ 0.0296 µM) | – |
| Nc1nc(/C(=N/Oc2ccccc2Cl)C(=O)N[C@@H]2C(=O)N3C(C(=O)[O-])=C(C[n+]4ccc5cc(O)c(O)cc5c4)CS[C@H]23)cs1 [Compound II, (6R,7R)-7-[(Z)-2-(2-amino-1,3-thiazol-4-yl)-2-(o-chlorophenoxyimino)-acetamide]-3-(6,7-dihydroxy-2-isoquinolinium)methyl-3-cephem-4-carboxylate] | 0.8 (≈ 1.22 µM) | 0.8 (≈ 1.22 µM) | < 0.01 | < 0.01 | < 0.01 | < 0.01 | 1.6 (≈ 2.45 µM) | 0.2 (≈ 0.306 µM) | 0.2 (≈ 0.306 µM) | < 0.01 | < 0.01 | < 0.01 | < 0.01 | < 0.01 | – |
| Nc1nc(/C(=N/Oc2ccccc2)C(=O)N[C@@H]2C(=O)N3C(C(=O)[O-])=C(C[n+]4ccc5cc(O)c(O)cc5c4)CS[C@H]23)cs1 [Compound I, (6R,7R)-7-[(Z)-2-(2-amino-1,3-thiazol-4-yl)-2-phenoxy-iminoacetamide]-3-(6,7-dihydroxy-2-isoquinolinium)methyl-3-cephem-4-carboxylate] | 0.1 (≈ 0.162 µM) | 0.1 (≈ 0.162 µM) | < 0.01 | < 0.01 | < 0.01 | < 0.01 | 0.1 (≈ 0.162 µM) | 0.8 (≈ 1.29 µM) | 0.2 (≈ 0.323 µM) | < 0.01 | < 0.01 | < 0.01 | < 0.01 | < 0.01 | – |
| CC(C)(O/N=C(\C(=O)N[C@@H]1C(=O)N2C(C(=O)[O-])=C(C[n+]3ccccc3)CS[C@H]12)c1csc(N)n1)C(=O)O [CAZ, Ceftazidime, reference compound] | – | – | – | – | – | – | – | – | – | – | – | 0.1 (≈ 0.183 µM) | – | – | MIC ([1]; 16 h): 1.6 µg/mL (≈ 2.93 µM); MIC ([2]; NCTC1049, 16 h): 0.8 µg/mL (≈ 1.46 µM); MIC ([3]; PCI602, 16 h): 0.1 µg/mL (≈ 0.183 µM); MIC ([4]; IAM1184, 16 h): 0.03 µg/mL (≈ 0.0549 µM); MIC ([5]; 16 h): 0.01 µg/mL (≈ 0.0183 µM); MIC ([6]; 16 h): 0.01 µg/mL (≈ 0.0183 µM); MIC ([7]; ATCC6633, 16 h): 3.1 µg/mL (≈ 5.67 µM); MIC ([8]; 16 h): 3.1 µg/mL (≈ 5.67 µM); MIC ([9]; 16 h): 1.6 µg/mL (≈ 2.93 µM); MIC ([10]; K12C600, 16 h): 0.2 µg/mL (≈ 0.366 µM); MIC ([11]; Enterobacter cloacae, 963, 16 h): 0.1 µg/mL (≈ 0.183 µM); MIC ([13]; IFO3445, 16 h): 0.01 µg/mL (≈ 0.0183 µM); MIC ([14]; ENTERITIDIS, 16 h): 0.1 µg/mL (≈ 0.183 µM) |
